Columns and labels:
[1] = In vivo toxicity evaluation in C57BL/6 mice
Procedure: For evaluation of in vivo toxicity of YKL-5-124, a dose-escalating study from 2.5 mg/kg to 15 mg/kg q.d. five times/week via intraperitoneal injection (i.p.) was tested in C57BL/6 mice. In vivo toxicities including body weight and blood cell counts including platelet, red blood cells and white blood cells were monitored. Similarly, a separate cohort was used to evaluate in vivo toxicity of combining YKL-5-124 and anti-PD-1 in C57BL/6 mice. For treatment studies, mice were evaluated by MRI imaging (Preclinical Imaging Laboratory, NYULH) to quantify lung tumor burden before for randomization and after drug treatment for efficacy evaluation. Mice were treated with either vehicle and isotype IgG (Control), anti-PD-1 200 μg/mouse (clone 29F.1A12), YKL-5-124 10 mg/kg, or combined anti-PD-1 and YKL-5-124 (Combo). YKL-5-124 was administered daily from Monday to Friday, and PD-1 antibody was administered three times a week (Monday, Wednesday, and Friday). For chemotherapy, cisplatin (5 mg/kg) was given on Day 1 and etoposide (10 mg/kg) on Day 1, 2, 3 every seven days per cycle for three cycles.

[2] = test system: HAP1 cells expressing CDK7 wild-type (WT); assay: RT-qPCR of TNF and CXCL10 in HAP1 CDK7 WT cells; assay type: cell-based, human; settings: 100 nM, 48 hr
Procedure: (§1) Cell pellets were collected and then subjected to total RNA extraction using RNeasy Plus Mini Kit (QIAGEN, Cat #74136) according to the manufacturer's instructions, or using TRIzol:Chloroform phase-separation by centrifugation followed by RNA precipitation using isopropanol. The extracted RNA was reversely transcribed into cDNA using the High-Capacity RNA-to-cDNA™ Kit (Thermo Fisher Scientific, Cat #4387406) according to the manufacturer's instructions. The obtained cDNA samples were diluted and used for RT-qPCR. PowerUp™ SYBR™ Green Master Mix (Thermo Fisher Scientific, Cat #A25742) or TaqMan Gene Expression Master Mix (Life Technologies, Cat #4369514). Gene specific primers with sequences listed in Table 3 were used for PCR amplification and detection on the StepOnePlus™ Real-Time PCR System (Thermo Fisher Scientific). RT-qPCR data were normalized to Actb (mouse cells) or GUSB (human cells) and presented as fold changes of gene expression in the test sample compared to the control.

cGAS-STING pathway = cGAS-STING pathway analysis (western blotting; cGAS knockout RT-qPCR); assay type: cell-based, mouse, human; settings: DMS79, RPP631, cGAS knockout RPP631
Procedure: as §1
Cells in culture were collected by centrifuging at 1,500 rpm and then washed with ice-cold PBS twice to completely remove residual medium. […] Protein concentrations in lysates were measured by Pierce™ BCA Protein Assay Kit (Thermo Fisher Scientific, Cat #23225) and followed by the addition of SDS loading buffer (6×) and heated at 95° C. for 5 min. […]

[3] = test system: Cyclin K, the obligate binding partner of CDK12/13; assay: Competitive pulldown assay (Bio-THZ1), Cyclin K; assay type: cell-based, mouse; settings: SCLC cells treated 6 hours
Procedure: (§2) Bio-THZ1 pulldown experiments followed by western blotting of enriched proteins was performed as described in Kwiatkowski, et al., Nature, 2014, 511, 616-620. Briefly, cells were treated with YKL-5-124 or DMSO for 6 hr (in vitro) or 72 hr (in vivo). Following treatment, cells were washed twice with cold PBS and then lysed in the following lysis buffer: 50 mM TrisHCI pH 8.0, 150 mM NaCl, 1% NP-40, 5 mM EDTA, 1 mM DTT, and protease/phosphatase cocktails. Following clearance, lysates were treated with biotinylated THZ1 for pulldown overnight at 4° C. Lysates were further incubated at room temperature for 3 hr to increase the efficiency of covalent bond formation. Lysates were then incubated with streptavidin agarose for pulldown for an additional 2-3 hr at 4° C. Agarose beads were washed 5 times with lysis buffer and then boiled in 2×SDS at 95° C. SDS-page resolved precipitated proteins were probed for the indicated proteins.

CDK7-Cyclin H complexes = assay: Competitive pulldown assay (Bio-THZ1), Cyclin H; assay type: cell-based, mouse, human; settings: SCLC cells (RPP631, DMS79) treated 6 hours
Procedure: as §2

[4] = test system: C-terminal domain (CTD) phosphorylation of RNA Pol II; assay: Western blotting of RNA Pol II CTD phosphorylation in SCLC lines; assay type: cell-based, mouse, human; settings: 24 hr
Procedure: Cells in culture were collected by centrifuging at 1,500 rpm and then washed with ice-cold PBS twice to completely remove residual medium. RIPA lysis buffer (Thermo Fisher Scientific, Cat #89900) supplemented with Halt™ Protease and Phosphatase Inhibitor Cocktail (Thermo Fisher Scientific, Cat #78440) was added to cell pellets to extract protein. Protein concentrations in lysates were measured by Pierce™ BCA Protein Assay Kit (Thermo Fisher Scientific, Cat #23225) and followed by the addition of SDS loading buffer (6×) and heated at 95° C. for 5 min. Equal amount of protein samples was subjected to 4-20% gradient gel SDS-PAGE and transferred to a nitrocellulose membrane (Bio-Rad, Cat #1704271). The membrane was blocked in Odyssey® Blocking Buffer (LI-COR, Cat #927-50003) at room temperature for 1 hour and incubated with appropriate antibodies at 4° C. overnight (Key Resources Table). Antibodies were diluted in TBST (TBS with 0.1% Tween) with 20% LI-COR Odyssey Blocking Buffer. On the next day, the membrane was washed with TBST (TBS with 0.1% Tween) four times and incubated with appropriate secondary antibodies (LI-COR, anti-Rabbit, Cat #925-32213; anti-Mouse, Cat #925-68072) at room temperature for 1 hour. Membranes were imaged using the LI-COR Odyssey® Imaging System.

## C=CC(=O)Nc1ccc(C(=O)Nc2n[nH]c3c2CN(C(=O)N[C@H](CN(C)C)c2ccccc2)C3(C)C)cc1 [YKL-5-124]
[1]; C57BL/6, mouse, in vivo, ip
  well tolerated dose: up to 10 mg/kg
[1]; dose up to 10 mg/kg
  body weight and blood counts: no significant change
[2]
  TNF and CXCL10 expression: significant increase
cGAS-STING pathway
  dependence of the immune stimulatory effect on the cGAS-STING pathway: independent of this pathway
[3]
  block of pulldown of Cyclin K: failed to block
CDK7-Cyclin H complexes
  block of Cyclin H pulldown: efficiently prevented
[4]
  C-terminal domain (CTD) phosphorylation of RNA Pol II (Ser2, Ser5): no effect

Source: patent US20230114207A1, “THE COMBINATION OF CYCLIN DEPENDENT KINASE 7 INHIBITOR AND IMMUNOTHERAPY FOR TREATMENT OF CANCER” (Dana-Farber Cancer Institute, Inc., priority 2019, published 2023)
